System: TNF-α release from LPS-stimulated human peripheral blood mononuclear cells
Assay: Cell based assay for TNF-α release (LPS stimulation of human PBMNC's)
Conditions: PBMC; human PBMN cells, LPS 1 μg/ml, incubated overnight, ELISA; read-out: IC50, inhibition of TNF-α release
Protocol: Cell based Assay for TNF-α Release
Method of Isolation of Human Peripheral Blood Mononuclear Cells:
Human whole blood was collected in vacutainer tubes containing heparin or EDTA as an anti coagulant. The blood was diluted (1:1) in sterile phosphate buffered saline and 10 ml. was carefully layered over 5 ml Ficoll Hypaque gradient (density 1.077 g/ml) in a 15 ml conical centrifuge tube. The sample was centrifuged at 3000 rpm for 25 minutes in a swing-out rotor at room temperature. After centrifugation, interface of cells were collected, diluted at least 1:5 with PBS and washed three times by centrifugation at 2500 rpm for 10 minutes at room temperature. The cells were resuspended in serum free RPMI 1640 medium at a concentration of 2 million cells/ml. Alternatively whole blood was used.
LPS Stimulation of Human PBMNC's:
PBMN cells (0.1 ml; 2 million/ml) were co-incubated with 20 μl of compound (final DMSO concentration of 0.2%) for 10 min in a flat bottom 96 well microtiter plate. Compounds were dissolved in DMSO initially and diluted in medium for a final concentration of 0.2% DMSO. LPS (1 μg/ml, final concentration) was then added at a volume of 10 μl per well. After 30 min, 20 μl of fetal calf serum (final concentration of 10%) was added to each well. Cultures were incubated overnight at 37° C. in an atmosphere of 5% CO2 and 95% air. Supernatant were then removed and tested by ELISA for TNF-α release using a commercial kit (e.g. BD Biosciences). For whole blood, the plasma samples were diluted 1:20 for ELISA. The level of TNF-α in treated wells was compared with the vehicle treated controls and inhibitory potency of compound was expressed as IC50 values calculated by using Graph pad prism.

| IC50 [µM] | SMILES |
| --- | --- |
| 4.2 to 10 | Cc1nn(C2CCCC2)c2cc(C3=NOC(C)(C#N)C3)ccc12 (stereo not shown) [Compound 2, 3-(1-Cyclopentyl-3-methyl-1H-indazol-6-yl)-5-methyl-4,5-dihydroisoxazole-5-carbonitrile] |
| 4.2 to 10 | CCc1nn(C2CCCC2)c2cc(C3=NOC(C)(C#N)C3)ccc12 (stereo not shown) [Compound 3, 3-(1-Cyclopentyl-3-ethyl-1H-indazol-6-yl)-5-methyl-4,5-dihydroisoxazole-5-carbonitrile] |
| 4.2 to 10 | Cc1nn(C2CCCC2)c2cc(C3=NOC(C)(c4nc(-c5cc(F)ccc5F)no4)C3)ccc12 (stereo not shown) [Compound 23, 1-Cyclopentyl-6-{5-[3-(2,5-difluorophenyl)-1,2,4-oxadiazol-5-yl]-5-methyl-4,5-dihydroisoxazol-3-yl}-3-methyl-1H-indazole] |
| 4.2 to 10 | CCc1nn(C2CCCC2)c2cc(C3=NOC(C)(c4nc(-c5cc(Cl)ccc5Cl)no4)C3)ccc12 (stereo not shown) [Compound 31, 1-Cyclopentyl-6-{5-[3-(2,5-dichlorophenyl)-1,2,4-oxadiazol-5-yl]-5-methyl-4,5-dihydroisoxazol-3-yl}-3-ethyl-1H-indazole] |
| 4.2 to 10 | CCc1nn(C2CCCC2)c2cc(C3=NOC(C)(c4nc(-c5cc(F)ccc5F)no4)C3)ccc12 (stereo not shown) [Compound 32, 1-Cyclopentyl-6-{5-[3-(2,5-difluorophenyl)-1,2,4-oxadiazol-5-yl]-5-methyl-4,5-dihydroisoxazol-3-yl}-3-ethyl-1H-indazole] |
| 1.2 | COc1ccc(C2CNC(=O)C2)cc1OC1CCCC1 (stereo not shown) [rolipram, reference compound] |

System: not given
Assay: not given
Conditions: not given

| melting point [°C] | SMILES |
| --- | --- |
| 154 to 155 | CCc1nn(C2CCCC2)c2cc(C3=NOC(C)(c4noc(-c5ccc(Cl)cc5)n4)C3)ccc12 (stereo not shown) [Compound 11, 6-{5-[5-(4-Chlorophenyl)-1,2,4-oxadiazol-3-yl]-5-methyl-4,5-dihydroisoxazol-3-yl}-1-cyclopentyl-3-ethyl-1H-indazole] |

From patent publication US7781460B2, “Substituted indazoles as inhibitors of phosphodiesterase type-IV” (Ranbaxy Laboratories Limited, priority 2005, dated 2010)
